The term MIC denotes the lowest concentration found to suppress growth.

This is an account of results in US10961278B2, “Vancomycin derivative, preparation method, pharmaceutical composition and use thereof” (SHANGHAI INSTITUTE OF MATERIA MEDICA, CHINESE ACADEMY OF …, priority 2016, dated 2021).

Assay [1] relates to vancomycin-sensitive Staphylococcus aureus Newman strain. In words: In vitro antibacterial activity assay (MIC, CLSI dilution method). To be noted: Staphylococcus aureus, S. aureus Newman, 37° C., 16 h. It is filed as cell-based.
For assay [2], the system named is vancomycin-middle resistant Staphylococcus aureus Mu50 strain. The description is as above. It is filed as cell-based.
Where [3] appears, read: Staphylococcus aureus, 16 h, read-out: MIC Mu50.
Setting [4] is: Staphylococcus aureus, 16 h, S. aureus Mu50, 37° C., read-out: MIC Mu50.

Converted amounts (≈) assume the structure as drawn. Like-named read-outs stand apart in the source and are kept apart here.

As for `CN[C@H](CC(C)C)C(=O)N[C@H]1C(=O)N[C@@H](CC(N)=O)C(=O)N[C@H]2C(=O)N[C@@H]3C(=O)N[C@H](C(=O)N[C@H](C(=O)O)c4cc(O)c(CNCCCNC(=O)[C@H](O)[C@@H](O)[C@H](O[C@@H]5OC(CO)[C@H](O)C(O)[C@@H]5O)[C@H](O)CO)c(O)c4-c4cc3ccc4O)[C@H](O)c3ccc(c(Cl)c3)Oc3cc2cc(c3OC2O[C@H](CO)C(O)C(O)[C@H]2O[C@H]2CC(C)(NCc3ccc(-c4ccc(Cl)cc4)cc3)[C@H](O)C(C)O2)Oc2ccc(cc2Cl)[C@H]1O` (some centres unmarked) [Van015], the figures for the minimum inhibitory concentration (MIC) in assay [1] and in assay [2] (setting [3]) were 0.25 µg/mL (≈ 0.12 µM) and 0.5 µg/mL (≈ 0.241 µM), respectively.

Turning to `CN[C@H](CC(C)C)C(=O)N[C@H]1C(=O)N[C@@H](CC(N)=O)C(=O)N[C@H]2C(=O)N[C@H]3C(=O)N[C@H](C(=O)N[C@H](C(=O)O)c4cc(O)c(CNCCCNC(=O)[C@H](O)[C@@H](O)[C@H](O)[C@H](O)CO)c(O)c4-c4cc3ccc4O)[C@H](O)c3ccc(c(Cl)c3)Oc3cc2cc(c3OC2O[C@H](CO)C(O)C(O)[C@H]2O[C@@H]2CC(C)[C@@H](O)C(C)(NCc3ccc(OCc4cccc(-c5ccccc5)c4C)c(Cl)c3)C2)Oc2ccc(cc2Cl)[C@H]1O` (some centres unmarked) [Van017], the figures for the minimal inhibitory concentration (MIC) in assay [1] (NEWMAN) and in assay [2] (setting [4]) were 0.5 µg/mL (≈ 0.246 µM) and 1 µg/mL (≈ 0.492 µM), respectively.

As to `CCc1ccc(CNC2(C)C[C@H](O[C@H]3C(Oc4c5cc6cc4Oc4ccc(cc4Cl)[C@@H](O)[C@@H](NC(=O)[C@@H](CC(C)C)NC)C(=O)N[C@@H](CC(N)=O)C(=O)N[C@H]6C(=O)N[C@H]4C(=O)N[C@H](C(=O)N[C@H](C(=O)O)c6cc(O)c(CNCCCNC(=O)[C@H](O)[C@@H](O)[C@H](O)[C@H](O)CO)c(O)c6-c6cc4ccc6O)[C@H](O)c4ccc(c(Cl)c4)O5)O[C@H](CO)C(O)C3O)CC(C)[C@H]2O)cc1` (some centres unmarked) [Van018], the MIC in assay [1] (NEWMAN) is 4 µg/mL (≈ 2.19 µM); in assay [2] (setting [4]), 8 µg/mL (≈ 4.37 µM).

`CCCCCCCCCNC1(C)C[C@H](O[C@H]2C(Oc3c4cc5cc3Oc3ccc(cc3Cl)[C@@H](O)[C@@H](NC(=O)[C@@H](CC(C)C)NC)C(=O)N[C@@H](CC(N)=O)C(=O)N[C@H]5C(=O)N[C@H]3C(=O)N[C@H](C(=O)N[C@H](C(=O)O)c5cc(O)c(CNCCCNC(=O)[C@H](O)[C@@H](O)[C@H](O)[C@H](O)CO)c(O)c5-c5cc3ccc5O)[C@H](O)c3ccc(c(Cl)c3)O4)O[C@H](CO)C(O)C2O)CC(C)[C@H]1O` (some centres unmarked) [Van019]: the MIC in assay [1] (NEWMAN) was 0.5 µg/mL (≈ 0.272 µM); in assay [2] (setting [4]) it was 2 µg/mL (≈ 1.09 µM).

For `CN[C@H](CC(C)C)C(=O)N[C@H]1C(=O)N[C@@H](CC(N)=O)C(=O)N[C@H]2C(=O)N[C@@H]3C(=O)N[C@H](C(=O)NC(C(=O)NCCCN(C)C)c4cc(O)cc(O)c4-c4cc3ccc4O)[C@H](O)c3ccc(c(Cl)c3)Oc3cc2cc(c3OC2O[C@H](CO)C(O)C(O)[C@H]2O[C@H]2CC(C)(NCc3ccc(-c4ccc(Cl)cc4)cc3)[C@H](O)C(C)O2)Oc2ccc(cc2Cl)[C@H]1O` (some centres unmarked) [Van020], the minimum inhibitory concentration (MIC) in assay [1] and in assay [2] (setting [3]) was 1 µg/mL (≈ 0.577 µM) each time.

As to `CN[C@H](CC(C)C)C(=O)N[C@H]1C(=O)N[C@@H](CC(N)=O)C(=O)N[C@H]2C(=O)N[C@H]3C(=O)N[C@H](C(=O)N[C@H](C(=O)NCCCN(C)C)c4cc(O)c(CNCCOC5OC(CO)[C@@H](O)C(O)C5O)c(O)c4-c4cc3ccc4O)[C@H](O)c3ccc(c(Cl)c3)Oc3cc2cc(c3OC2O[C@H](CO)C(O)C(O)[C@H]2O[C@H]2CC(C)(NCc3ccc(-c4ccc(Cl)cc4)cc3)[C@H](O)C(C)O2)Oc2ccc(cc2Cl)[C@H]1O` (some centres unmarked) [Van021], the results for the MIC in assay [1] (NEWMAN) and in assay [2] (setting [4]) were 2 µg/mL (≈ 1.02 µM) and 4 µg/mL (≈ 2.03 µM), respectively.

As to `CN[C@H](CC(C)C)C(=O)N[C@H]1C(=O)N[C@@H](CC(N)=O)C(=O)N[C@H]2C(=O)N[C@H]3C(=O)N[C@H](C(=O)NC(C(=O)NCCCN(C)C)c4cc(O)c(CNCCCNC(=O)[C@H](O)[C@@H](O)[C@H](O)[C@H](O)CO)c(O)c4-c4cc3ccc4O)[C@H](O)c3ccc(c(Cl)c3)Oc3cc2cc(c3OC2O[C@H](CO)C(O)C(O)[C@H]2O[C@H]2CC(C)(NCc3ccc(-c4ccc(Cl)cc4)cc3)[C@H](O)C(C)O2)Oc2ccc(cc2Cl)[C@H]1O` (some centres unmarked) [Van022], the MIC was found to be 1 µg/mL (≈ 0.5 µM) in assay [1] (NEWMAN) and 2 µg/mL (≈ 1 µM) in assay [2] (setting [4]).

As for `CN[C@H](CC(C)C)C(=O)N[C@H]1C(=O)N[C@@H](CC(N)=O)C(=O)N[C@H]2C(=O)N[C@@H]3C(=O)N[C@H](C(=O)N[C@H](C(=O)NCCCNC(=O)[C@H](O)[C@@H](O)[C@H](O)[C@H](O)CO)c4cc(O)cc(O)c4-c4cc3ccc4O)[C@H](O)c3ccc(c(Cl)c3)Oc3cc2cc(c3OC2O[C@H](CO)C(O)C(O)[C@H]2O[C@H]2CC(C)(NCc3ccc(-c4ccc(Cl)cc4)cc3)[C@H](O)C(C)O2)Oc2ccc(cc2Cl)[C@H]1O` (some centres unmarked) [Van023], the minimal inhibitory concentration (MIC) in assay [1] stood at 2 µg/mL (≈ 1.06 µM); in assay [2] (setting [3]), 4 µg/mL (≈ 2.12 µM).

In the case of `CCCCCCCCCCNC1(C)C[C@H](O[C@H]2C(Oc3c4cc5cc3Oc3ccc(cc3Cl)[C@@H](O)[C@@H](NC(=O)[C@@H](CC(C)C)NC)C(=O)N[C@@H](CC(N)=O)C(=O)N[C@H]5C(=O)N[C@H]3C(=O)N[C@H](C(=O)N[C@H](C(=O)O)c5cc(O)c(CNCCCNC(=O)[C@H](O)[C@@H](O)[C@H](O)[C@H](O)CO)c(O)c5-c5cc3ccc5O)[C@H](O)c3ccc(c(Cl)c3)O4)O[C@H](CO)C(O)C2O)CC(C)[C@H]1O` (some centres unmarked) [Van024], the values for the minimum inhibitory concentration (MIC) in assay [1] (NEWMAN) and in assay [2] (setting [4]) were 0.125 µg/mL (≈ 0.0675 µM) and 0.5 µg/mL (≈ 0.27 µM), respectively.

As for `CCCCCCCCCCC(=O)NC1(C)C[C@H](O[C@H]2C(Oc3c4cc5cc3Oc3ccc(cc3Cl)[C@@H](O)[C@@H](NC(=O)[C@@H](CC(C)C)NC)C(=O)N[C@@H](CC(N)=O)C(=O)N[C@H]5C(=O)N[C@H]3C(=O)N[C@H](C(=O)N[C@H](C(=O)O)c5cc(O)c(CNCCCNC(=O)[C@H](O)[C@@H](O)[C@H](O)[C@H](O)CO)c(O)c5-c5cc3ccc5O)[C@H](O)c3ccc(c(Cl)c3)O4)O[C@H](CO)C(O)C2O)CC(C)[C@H]1O` (some centres unmarked) [Van025], the MIC in assay [1] (NEWMAN) was 16 µg/mL (≈ 8.51 µM); in assay [2] (setting [4]), 32 µg/mL (≈ 17 µM).

Take `CCCCCCCCCC(=O)NC1(C)C[C@H](O[C@H]2C(Oc3c4cc5cc3Oc3ccc(cc3Cl)[C@@H](O)[C@@H](NC(=O)[C@@H](CC(C)C)NC)C(=O)N[C@@H](CC(N)=O)C(=O)N[C@H]5C(=O)N[C@H]3C(=O)N[C@H](C(=O)N[C@H](C(=O)O)c5cc(O)c(CNCCCNC(=O)[C@H](O)[C@@H](O)[C@H](O)[C@H](O)CO)c(O)c5-c5cc3ccc5O)[C@H](O)c3ccc(c(Cl)c3)O4)O[C@H](CO)C(O)C2O)CC(C)[C@H]1O` (some centres unmarked) [Van026]: the minimal inhibitory concentration (MIC) turned out to be 32 µg/mL (≈ 17.2 µM) in assay [1] (NEWMAN) and 64 µg/mL (≈ 34.3 µM) in assay [2] (setting [4]).

Consider `CN[C@H](CC(C)C)C(=O)N[C@H]1C(=O)N[C@@H](CC(N)=O)C(=O)N[C@H]2C(=O)N[C@H]3C(=O)N[C@H](C(=O)N[C@H](C(=O)O)c4cc(O)c(CNCCCNC(=O)[C@H](O)[C@@H](O)[C@H](O)[C@H](O)CO)c(O)c4-c4cc3ccc4O)[C@H](O)c3ccc(c(Cl)c3)Oc3cc2cc(c3OC2O[C@H](CO)C(O)C(O)[C@H]2O[C@@H]2CC(C)[C@@H](O)C(C)(NCc3cccc4ccccc34)C2)Oc2ccc(cc2Cl)[C@H]1O` (some centres unmarked) [Van027], for which the minimum inhibitory concentration (MIC) was determined as 1 µg/mL (≈ 0.54 µM) in assay [1] (NEWMAN) and 4 µg/mL (≈ 2.16 µM) in assay [2] (setting [4]).

Regarding `CN[C@H](CC(C)C)C(=O)N[C@H]1C(=O)N[C@@H](CC(N)=O)C(=O)N[C@H]2C(=O)N[C@H]3C(=O)N[C@H](C(=O)N[C@H](C(=O)O)c4cc(O)c(CNCCCNC(=O)[C@H](O)[C@@H](O)[C@H](O)[C@H](O)CO)c(O)c4-c4cc3ccc4O)[C@H](O)c3ccc(c(Cl)c3)Oc3cc2cc(c3OC2O[C@H](CO)C(O)C(O)[C@H]2O[C@@H]2CC(C)[C@@H](O)C(C)(NCc3ccc(C#C[Si](C)(C)C)cc3)C2)Oc2ccc(cc2Cl)[C@H]1O` (some centres unmarked) [Van028], the MIC in assay [1] was determined as 1 µg/mL (≈ 0.527 µM); in assay [2] (Staphylococcus aureus; S. aureus Mu50, 37° C., 16 h; read-out: MIC Mu50), 2 µg/mL (≈ 1.05 µM).
